pEC50: −log10 of the molar value.
These molecules were tested on MOLM-13 cells (assay: Caspase cleavage assay (Caspase3, 7 activation)). Conditions: Homo sapiens, 16 h treatment, caspase substrate Z-DEVD-R110, read-out: c* Concentration at which 50% of the maximum signal was achieved (caspase activation).
Assay type: cell-based
In short: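 Cells (30,000/well, RPMI) treated 16 h with compound or DMSO in triplicate, then given buffer with 10 mM HEPES pH 7.5, 2 mM EDTA, 0.1% CHAPS and 25 μM Z-DEVD-R110. Fluorescence read once signal stabilized; results given as percentage increase in apoptotic cells versus DMSO-treated control.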

Row | pEC50 | SMILES
1 | 6.00 to 6.40 | [2H]c1c([2H])c([2H])c(COc2nc(N3CCN(C)CC3)ncc2Sc2ccc(C(N)=O)cc2)c([2H])c1[2H] [100t, 4-((4-(Benzyloxy-d5)-2-(4-methylpiperazin-1-yl)pyrimidin-5-yl)thio)benzamide]
2 | ≤ 5.92 | COc1cccc(COc2nc(N(C)CCN(C)C)ncc2Sc2ccc(C(N)=O)cc2)c1 [190g, 4-((2-((2-(Dimethylamino)ethyl)(methyl)amino)-4-((3-methoxybenzyl)oxy)pyrimidin-5-yl)thio)benzamide]
3 | 6.00 to 6.40 | CN(C)c1cccc(COc2nc(N3CCN(CCO)CC3)ncc2Sc2ccc(C(N)=O)cc2)c1 [185d, 4-((4-((3-(Dimethylamino)benzyl)oxy)-2-(4-(2-hydroxyethyl)piperazin-1-yl)pyrimidin-5-yl)thio)benzamide]
4 | 6.40 to 6.70 | C#CC(C)N1CCN(c2ncc(Sc3ccc(C(N)=O)cc3)c(OCc3cccc(OC)c3)n2)CC1 (stereo not drawn) [190n, 4-((2-(4-(But-3-yn-2-yl)piperazin-1-yl)-4-((3-methoxybenzyl)oxy)pyrimidin-5-yl)thio)benzamide]
5 | > 6.70 | C#CCCCCN1CCN(c2ncc(Sc3ccc(C(N)=O)cc3)c(OCc3cccc(N(C)C)c3)n2)CC1 [185e, 4-((4-((3-(Dimethylamino)benzyl)oxy)-2-(4-(hex-5-yn-1-yl)piperazin-1-yl)pyrimidin-5-yl)thio)benzamide]
6 | 6.40 to 6.70 | COc1cccc(COc2nc(N3CCOCC3)ncc2Sc2ccc(C(N)=O)cc2)c1 [190a, 4-((4-((3-Methoxybenzyl)oxy)-2-morpholinopyrimidin-5-yl)thio)benzamide]
7 | 6.40 to 6.70 | CN1CCN(c2ncc(Sc3ccc(N)nc3)c(OCc3ccc(F)cc3)n2)CC1 [146c, 5-((4-((4-Fluorobenzyl)oxy)-2-(4-methylpiperazin-1-yl)pyrimidin-5-yl)thio)pyridin-2-amine]
8 | > 6.70 | COc1cccc(COc2nc(N3CCN(Cc4nccs4)CC3)ncc2Sc2ccc(C(N)=O)cc2)c1 [190v, 4-((4-((3-Methoxybenzyl)oxy)-2-(4-(thiazol-2-ylmethyl)piperazin-1-yl)pyrimidin-5-yl)thio)benzamide]
9 | > 6.70 | C#CCCCN1CCN(c2ncc(Sc3ccc(C(N)=O)cc3)c(OCc3cccc(OC)c3)n2)CC1 [190k, 4-((4-((3-Methoxybenzyl)oxy)-2-(4-(pent-4-yn-1-yl)piperazin-1-yl)pyrimidin-5-yl)thio)benzamide]
10 | 6.00 to 6.40 | CN1CCN(c2ncc(Sc3ccc(C(N)=O)cc3)c(OCc3cccc(C(N)=O)c3)n2)CC1 [100w, 3-(((5-((4-Carbamoylphenyl)thio)-2-(4-methylpiperazin-1-yl)pyrimidin-4-yl)oxy)methyl)benzamide]
11 | 6.00 to 6.40 | CN1CCN(c2ncc(Sc3ccc(N)nc3)c(OCc3cccc(C(F)(F)F)c3)n2)CC1 [146e, 5-((2-(4-Methylpiperazin-1-yl)-4-((3-(trifluoromethyl)benzyl)oxy)pyrimidin-5-yl)thio)pyridin-2-amine]

Continued, molecule first:

Row | SMILES | pEC50
12 | COc1ccc(COc2nc(N3CCN(C)CC3)ncc2Sc2ccc(C(N)=O)cc2)cc1 [compound 96, 4-((4-((4-Methoxybenzyl)oxy)-2-(4-methylpiperazin-1-yl)pyrimidin-5-yl)thio)benzamide] | 6.00 to 6.40
13 | CN1CCN(c2ncc(Sc3ccc(C(N)=O)c(I)c3)c(OCc3ccccc3)n2)CC1 [compound 80, 4-((4-(Benzyloxy)-2-(4-methylpiperazin-1-yl)pyrimidin-5-yl)thio)-2-iodobenzamide] | 6.00 to 6.40
14 | CN1CCN(c2ncc(Sc3ccc(C=O)o3)c(OCc3ccccc3)n2)CC1 [compound 29, 5-((4-(Benzyloxy)-2-(4-methylpiperazin-1-yl)pyrimidin-5-yl)thio)furan-2-carbaldehyde] | 6.00 to 6.40
15 | COc1cccc(COc2nc(N3CCN(CC4CC4)C(=O)C3)ncc2Sc2ccc(C(N)=O)cc2)c1 [compound 321, 4-((2-(4-(Cyclopropylmethyl)-3-oxopiperazin-1-yl)-4-((3-methoxybenzyl)oxy)pyrimidin-5-yl)thio)benzamide] | > 6.70
16 | C=CC(=O)Nc1ccc(Sc2cnc(N3CCN(C)CC3)nc2OCc2ccccc2)cn1 [compound 56, N-(5-((4-(Benzyloxy)-2-(4-methylpiperazin-1-yl)pyrimidin-5-yl)thio)pyridin-2-yl)acrylamide] | ≤ 5.92
17 | CN1CCN(c2ncc(Sc3ccc(C(N)=O)c(Cl)c3)c(OCc3ccc(F)c(Cl)c3)n2)CC1 [compound 113, 2-Chloro-4-((4-((3-chloro-4-fluorobenzyl)oxy)-2-(4-methylpiperazin-1-yl)pyrimidin-5-yl)thio)benzamide] | > 6.70
18 | CN1CCN(c2ncc(Sc3ccc(C(N)=O)c(C(F)(F)F)c3)c(OCc3cccc(Cl)c3)n2)CC1 [compound 131, 4-((4-((3-Chlorobenzyl)oxy)-2-(4-methylpiperazin-1-yl)pyrimidin-5-yl)thio)-2-(trifluoromethyl)benzamide] | > 6.70
19 | CN(C)[C@@H]1CCN(c2ncc(Sc3ccc(C(N)=O)cc3)c(OCc3cccc(F)c3)n2)C1 [compound 363, (R)-4-((2-(3-(Dimethylamino)pyrrolidin-1-yl)-4-((3-fluorobenzyl)oxy)pyrimidin-5-yl)thio)benzamide] | 6.40 to 6.70
20 | C#CCN1CCN(c2ncc(Sc3ccc(C(N)=O)c(C(F)(F)F)c3)c(OCc3cccc(Cl)c3)n2)CC1 [compound 351, 4-((4-((3-Chlorobenzyl)oxy)-2-(4-(prop-2-yn-1-yl)piperazin-1-yl)pyrimidin-5-yl)thio)-2-(trifluoromethyl)benzamide] | 5.92 to 6.00
21 | COc1ccc(F)c(COc2nc(N3CCN(C)CC3)ncc2Sc2ccc(C(N)=O)c(C(F)(F)F)c2)c1 [compound 138, 4-((4-((2-Fluoro-5-methoxybenzyl)oxy)-2-(4-methylpiperazin-1-yl)pyrimidin-5-yl)thio)-2-(trifluoromethyl)benzamide] | > 6.70
22 | CN1CCN(c2ncc(Sc3ccc(C(N)=O)c(Cl)c3)c(OCc3cccc(N)c3)n2)CC1 [compound 117, 4-((4-((3-Aminobenzyl)oxy)-2-(4-methylpiperazin-1-yl)pyrimidin-5-yl)thio)-2-chlorobenzamide] | 6.40 to 6.70
23 | COc1cccc(COc2nc(N3CCN(C)CC3)ncc2Sc2ccc(C(N)=O)c(Cl)c2)n1 [compound 123, 2-Chloro-4-((4-((6-methoxypyridin-2-yl)methoxy)-2-(4-methylpiperazin-1-yl)pyrimidin-5-yl)thio)benzamide] | 6.40 to 6.70
24 | COc1ccc(Sc2cnc(N3CCN(C)CC3)nc2OCc2ccccc2)c(N)c1 [compound 62, 2-((4-(Benzyloxy)-2-(4-methylpiperazin-1-yl)pyrimidin-5-yl)thio)-5-methoxyaniline] | 6.00 to 6.40
25 | COc1cccc(COc2nc(N3CCN(CC#CCO)CC3)ncc2Sc2ccc(C(N)=O)cc2)c1 [compound 326, 4-((2-(4-(4-Hydroxybut-2-yn-1-yl)piperazin-1-yl)-4-((3-methoxybenzyl)oxy)pyrimidin-5-yl)thio)benzamide] | > 6.70
26 | CN1CCN(c2ncc(Sc3ccc(C(N)=O)c(Cl)c3)c(OCc3ccc(F)c(C(F)(F)F)c3)n2)CC1 [compound 115, 2-Chloro-4-((4-((4-fluoro-3-(trifluoromethyl)benzyl)oxy)-2-(4-methylpiperazin-1-yl)pyrimidin-5-yl)thio)benzamide] | 6.40 to 6.70
27 | COc1cc(COc2nc(N3CCN(C)CC3)ncc2Sc2ccc(N)nc2)ccc1F [compound 151, 5-((4-((4-Fluoro-3-methoxybenzyl)oxy)-2-(4-methylpiperazin-1-yl)pyrimidin-5-yl)thio)pyridin-2-amine] | > 6.70
28 | CN1CCN(c2ncc(Sc3ccc(C(N)=O)cc3)c(OCc3cccc(N=[N+]=[N-])c3)n2)CC1 [compound 101, 4-((4-((3-Azidobenzyl)oxy)-2-(4-methylpiperazin-1-yl)pyrimidin-5-yl)thio)benzamide] | > 6.70
29 | C#CCN1CCN(c2ncc(Sc3ccc(C(N)=O)c(C(F)(F)F)c3)c(OCc3cccc(I)c3)n2)CC1 [compound 357, 4-((4-((3-Iodobenzyl)oxy)-2-(4-(prop-2-yn-1-yl)piperazin-1-yl)pyrimidin-5-yl)thio)-2-(trifluoromethyl)benzamide] | 6.40 to 6.70
30 | CN1CCN(c2ncc(Sc3cccc(C=O)c3)c(OCc3ccccc3)n2)CC1 [compound 43, 3-((4-(Benzyloxy)-2-(4-methylpiperazin-1-yl)pyrimidin-5-yl)thio)benzaldehyde] | 6.00 to 6.40
31 | COc1cccc(COc2nc(N3CC[C@@H](N(C)C)C3)ncc2Sc2ccc(N)nc2)c1 [compound 375, (R)-5-((2-(3-(Dimethylamino)pyrrolidin-1-yl)-4-((3-methoxybenzyl)oxy)pyrimidin-5-yl)thio)pyridin-2-amine] | > 6.70
32 | CN1CCN(c2ncc(Sc3ccc(C(N)=O)c(Cl)c3)c(OCc3cccc(O)c3)n2)CC1 [compound 122, 2-Chloro-4-((4-((3-hydroxybenzyl)oxy)-2-(4-methylpiperazin-1-yl)pyrimidin-5-yl)thio)benzamide] | 6.40 to 6.70
33 | CN1CCN(c2ncc(Sc3ccc(N)nc3)c(OCc3cccc(N(C)C)c3)n2)CC1 [compound 153, 5-((4-((3-(Dimethylamino)benzyl)oxy)-2-(4-methylpiperazin-1-yl)pyrimidin-5-yl)thio)pyridin-2-amine] | > 6.70
34 | CN1CCN(c2ncc(Cc3ccc(C(N)=O)cc3)c(OCc3ccccc3)n2)CC1 [compound 299, 4-((4-(Benzyloxy)-2-(4-methylpiperazin-1-yl)pyrimidin-5-yl)methyl)benzamide] | 6.40 to 6.70
35 | C#CCCCCN1CCN(c2ncc(Sc3ccc(C(N)=O)c(C(F)(F)F)c3)c(OCc3cccc(Cl)c3)n2)CC1 [compound 226, 4-((4-((3-Chlorobenzyl)oxy)-2-(4-(hex-5-yn-1-yl)piperazin-1-yl)pyrimidin-5-yl)thio)-2-(trifluoromethyl)benzamide] | 6.40 to 6.70
36 | Cc1cc(C(N)=O)ccc1Sc1cnc(N2CCN(C)CC2)nc1OCc1ccccc1 [compound 73, 4-((4-(Benzyloxy)-2-(4-methylpiperazin-1-yl)pyrimidin-5-yl)thio)-3-methylbenzamide] | 5.92 to 6.00
